Eight compounds from PubChem BioAssay (NCI) can be followed below.

Assay in all cases: inhibition of tumour cell growth, NCI panel, 48 h
For test [1], the system named is MALME-3M melanoma.
Test [2] relates to RPMI-8226 leukemia.
For test [3], the system named is EKVX NSCLC.
Test [4] concerns SK-MEL-2 melanoma.
For test [5], the system named is KM12 colon.
In test [6] the test system is HS 578T breast.
The subject of test [7] is SR leukemia.

Values joined by “and” are separate entries in the source; they are usually repeats but may differ in a detail not shown here. Equal values may be shown once.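 Protocol summary: plate cells (96-well), add compound at 5 concentrations, incubate 48 h, interpolate endpoints linearly. GI50 marks 50% less growth. TGI is the concentration that stops growth completely.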 Bounds are passed on as bounds.

`COc1cc(NS(=O)(=O)c2ccc(-c3cnc(C4CC4)o3)cc2)ccc1F`: the GI50 is 560 nM in test [1]; 457 nM in test [2]; 1130 nM in test [3]; 706 nM in test [4]; 277 nM in test [5]; 376 nM in test [6]. Besides, the GI50 in test [7] was 102 nM. In addition, the TGI came out at 33900 nM in test [1]; 39500 nM in test [2]; 95500 nM in test [3]; 23600 nM in test [4]; 18100 nM in test [5]; 23500 nM in test [6]. Besides, the TGI in test [7] was above 100000 nM.
For `COc1ccccc1Cn1cc2c(c1-c1ccccc1)CCc1cnoc1-2`, the GI50 in test [1] was 1390 nM; in test [2], 3780 nM; in test [3] it was 2760 nM; in test [4], 1830 nM; in test [5], 1760 nM; in test [6], 1450 nM. Also, the GI50 in test [7] is 491 nM. Moreover, the TGI in test [1] was above 100000 nM; in test [2], above 100000 nM; in test [3], above 100000 nM; in test [4], 9970 nM; in test [5], above 100000 nM; in test [6], 6320 nM. Besides, the TGI in test [7] stood at 56500 nM.
As for `COc1cc2c3c(n(C)c(=O)c2cc1OC)-c1cc2c(cc1/C3=C\CNCCCN)OCO2`, the GI50 is 144 nM in test [1]; 414 nM in test [2]; 2850 nM in test [3]; 2330 nM in test [4]; 359 nM in test [5]; 1280 nM in test [6]. Also, in test [7], the GI50 is 20.3 nM. Moreover, the TGI stood at 591 nM in test [1]; 2150 nM in test [2]; 12200 nM in test [3]; 3930 nM in test [5]; 6060 nM in test [6]; 618 nM in test [7].
Turning to `C=C1C(=O)O[C@H]2[C@H]1CC/C(COC(=O)c1cc3ccccc3s1)=C\CC[C@@]1(C)O[C@@H]21`, the GI50 in test [1] was 1820 nM; in test [2] it was 566 nM; in test [3], 1690 nM; in test [4] it was 1750 nM; in test [5], 1780 nM; in test [6], 2890 nM. Moreover, the GI50 in test [7] was 520 nM. For the same compound, the TGI in test [1] was found to be 3750 nM; in test [2], 4790 nM; in test [3] it was 3190 nM; in test [4] it was 3520 nM; in test [5], 4080 nM; in test [6], 8520 nM. In test [7], this compound registered a TGI of 4540 nM.
As to `COc1cc2c3c(n(CCNCCCNCCn4c5c(c6cc(OC)c(OC)cc6c4=O)C(=O)c4ccccc4-5)c(=O)c2cc1OC)-c1ccccc1C3=O`, the GI50 in test [1] was 884 nM; in test [2], below 18 nM; in test [3], 5890 nM; in test [4], 1040 nM; in test [5] it was 75.4 nM; in test [6] it was above 49000 nM. The GI50 in test [7] was 19.1 nM. Moreover, the TGI was 6190 nM in test [1]; 614 nM in test [2]; 47200 nM in test [3]; 15200 nM in test [4]; 590 nM in test [5]; above 100000 nM in test [6]. Further, the TGI in test [7] amounted to 702 nM.
In the case of `CC(C)(C)c1cc(NC(=O)Cc2ccc(-c3cnc4cc(-c5cnn(CCN6CCOCC6)c5)ccc4n3)cc2)no1`, the GI50 in test [1] is 187 nM and 278 nM and 50.5 nM; in test [2], 249 nM and 609 nM and 98.5 nM; in test [3], 829 nM and 459 nM and 144 nM; in test [4], 347 nM and 420 nM and 56.9 nM; in test [6], 132 nM and 235 nM and 37.7 nM; in test [7] it was 197 nM and 336 nM and 93.8 nM. Besides, the TGI was 11300 nM and 2820 nM in test [1]; 50000 nM and > 100000 nM and > 3000 nM in test [2]; 50000 nM and > 100000 nM and > 3000 nM in test [3]; 50000 nM and > 100000 nM and > 2530 nM in test [4]; 50000 nM and > 100000 nM and > 3000 nM in test [5]; 1560 nM and 2880 nM and > 2800 nM in test [6]. Also, in test [7], the TGI was 50000 nM and > 100000 nM and > 3000 nM.
In the case of `CCOC(=O)c1c(C)nc2c(c1N)/C(=C/c1ccc(OC)cc1)C(=O)N2Cc1ccc(F)cc1`, the GI50 in test [1] is 185 nM; in test [2], 224 nM; in test [3], 270 nM; in test [4] it was 238 nM; in test [5], 243 nM; in test [6], 479 nM. The GI50 in test [7] is 81.6 nM. Besides, the TGI in test [1] was 440 nM; in test [2], 653 nM; in test [3], 2260 nM; in test [4] it was 729 nM; in test [5], 844 nM; in test [6] it was above 100000 nM. This compound showed a TGI in test [7] of 726 nM.
In the case of `COc1ccc(-n2cc(-c3cc(OC)c(OC)c(OC)c3)[nH]c2=O)cc1Cl`, the GI50 is above 100000 nM in test [1]; above 100000 nM in test [2]; above 100000 nM in test [3]; above 100000 nM in test [4]; above 100000 nM in test [5]; 34900 nM in test [6]. For the same compound, the GI50 in test [7] was 55400 nM. For the same compound, the TGI in test [1], in test [2], in test [3], in test [4], in test [5] and in test [6] was above 100000 nM in each case. For the same compound, the TGI in test [7] was above 100000 nM.
